Experimental data taken from patent publication US6664297B1, “Methods for inhibition and dissolution of amyloidoses by administration of compositions comprising 2,4-dinitrophenol” (priority 2000, dated 2003).
Where a name gives a salt, the structure may show the parent alone.

Tests used:
amyloid deposits = target: T1, amyloid deposits (Homo sapiens, UniProt P05067); test: Rat model of cerebral Aβ deposition (intrahippocampal co-injection); format: in vivo; settings: 3 nmol Aβ1-42 co-injected with DNP 0.76 mM into hippocampus; 8 days; n=4, p=0.05
T1 construct: purchased Bachem Inc; host or cells: synthetic peptide
Procedure: To evaluate the effects of nitrophenols as inhibitors of amyloid deposition in vivo, we used a rat model of cerebral Aβ deposition. Aβ was injected alone or in the presence of DNP into the left or right hippocampi of rats, respectively, and the areas occupied by amyloid deposits in either side were measured on consecutive sections stained with thioflavin S. The experimental protocol used was designed to minimize the influence of individual variability in animal response by injecting Aβ into one hemisphere and Aβ plus DNP into the other hemisphere for each individual rat.
Male adult Wistar rats (280-320 g) were anesthetized with chloropent (3.3 ml/kg) and placed into a stereotaxic frame. The left hippocampus (standard coordinates: A 5.0; L 2.0; H 6.8) was injected with 3 nmol of Aβ1-42 (from a previously diluted stock in 55 μl of PBS containing 9% DMSO). A volume of 1.5 μl was administered at a constant flow rate during a time period of 15 minutes. […] Images were analyzed with ScionImage to measure the areas occupied by amyloid aggregates.
FIG. 5A is a schematic diagram of the injection protocol and representative hippocampal sections visualized by Thioflavine-S staining or autofluorescence, as indicated. FIGS. 5B-5E show quantitative analysis of the area of amyloid deposits in consecutive hippocampal sections as described above. […]

hippocampal neurons [1] = test: Cell viability of hippocampal neuron cultures by trypan blue exclusion; settings: no Aβ
Procedure: Hippocampi from 18-day-old rat embryos were dissected and cultured as previously described by Martins et al., Nat. Med., 3, 1376-82, 1997) with minor modifications. Cells were plated on glass coverslips previously coated with 1.5 μg/ml polyornithine (Sigma) in Basal Eagle's Medium (Gibco) enriched with 10% fetal calf serum (Hyclone) for the first 24 hours of culture. After that, proliferation of nonneuronal cells was inhibited with 10 μM arabinosyl cytoside and the serum concentration was lowered to 2%. Aβ1-42 (44 μM), in the absence or in the presence of nitrophenols, was added after 48 hours of culture and kept for three days. Control cultures consisting of neurons cultured in growth medium alone or in the presence of residual TFE (0.5% v/v) were also prepared. Daily observations were carried out during this period.
Cell viability in cultures incubated with or without Aβ (as described above) was assessed by trypan blue exclusion. Immediately before counting, the medium was removed, cultures were washed once with PBS and incubated for 5 min with 0.4% trypan blue. Randomly chosen fields were counted in a Zeiss Televal microscope. Percentages of live neurons are expressed relative to the total number of neurons observed in each field. Five independent fields were counted for each experimental condition (which were carried out in triplicate).

Aβ1-42 [2] = target: T2, Aβ1-42 (Homo sapiens, UniProt P05067); test: Transmission electron microscopy of Aβ1-42 fibril formation; format: biochemical
T2 construct: purchased Bachem Inc; host or cells: synthetic peptide
Procedure: Aggregated samples were also examined by transmission electron microscopy. In this case, Aβ (22 μM) was incubated in PBS in the absence or in the presence of nitrophenols, as indicated. After 48 hours, samples were stained with 1% uranyl acetate.
Confirmation that the light scattering intensity measurements were in fact related to the formation of amyloid fibrilar aggregates was made by transmission electron microscopy analysis using uranyl acetate staining.
An Aβ1-42 sample incubated for 2 days in the presence of 20 μM DNP is shown in FIG. 2C (Magnification: 52,500×).

Aβ1-42 [3] = target: T2, Aβ1-42; test: Disaggregation of aggregated Aβ1-42 followed by 90° light scattering; format: biochemical; settings: for IC50: aggregated Aβ1-42, light scattering measured 1.5 hour after addition, 23° C., read-out: IC50 for disaggregation of Aβ; for inhibition at 200 µM: read-out: % decrease in light scattering
Procedure: (§1) Aβ peptides of different chain-lengths (Bachem Inc., Torrance, Calif., USA) were freshly dissolved from lyophilized powder in 50% (v/v) trifluoroethanol (TFE) in PBS. Aggregation was triggered by dilution of aliquots from the stock solution into PBS (resulting in ≦0.5% (v/v) residual TFE), and was followed as a function of time by light scattering measurements. Light scattering was measured in sealed cuvettes at 500 nm on ISS Inc. (Champaign, Ill., USA) PC1 or Hitachi F-4500 spectrofluorometers. […] Low temperature experiments were performed using a thermostated cell holder and flushing the cell compartment with N2 to avoid condensation. All results shown represent equilibrium light scattering values obtained for each sample.
Concentrated peptide stock solutions were prepared in 50% (v/v) trifluoroethanol. Aggregation was triggered by dilution in phosphate-buffered saline (PBS) and was followed by means of light-scattering measurements (FIGS. 1A, 1B, 1C), thioflavin T fluorescence (not shown) and electron microscopy (FIG. 2). Equilibrium light scattering values were used as an index of the extent of aggregation under different experimental conditions.
One class of compounds we tested were the nitrophenols. The disaggregation of Aβ1-42 by nitrophenols was determined. 3-nitrophenol (NP; O) or 2,4-dinitrophenol (DNP; □) were added to aggregated samples prepared as described above. Light scattering intensities were measured 1.5 hour after addition of the drugs. Symbols represent averages±S.D. from 3 experiments.
Further results for a series of aromatic compounds are shown in Table 1, at aromatic compound concentrations of 200 micromolar.

hippocampal neurons [4] = test: Aβ neurotoxicity in hippocampal neuron cultures, morphology by anti-Tau immunostaining; format: cell-based, rat; settings: Aβ1-42 44 μM, 72 hours
Procedure: In order to evaluate the efficacy of the phenol derivatives, control assays were also performed in the absence of the aromatic or heteroaromatic compounds described herein.
Med., 3, 1376-82, 1997) with minor modifications. […] Daily observations were carried out during this period.
Aβ1-42 (44 μM) was added to the culture medium containing neurons and incubation was continued for 72 hours. […] Furthermore, the remaining cell bodies of Aβ-treated neurons were attached to the plate, but their neurites were retracted and thin, and sometimes detached from the plate.

Aβ1-42 [5] = target: T2, Aβ1-42; test: Disaggregation of fibrillar Aβ1-42 by GdnHCl, light scattering; format: biochemical; settings: Aβ1-42 10 μM, 1 hour incubation
Procedure: as §1
(§2) Stabilities of the fibrillar amyloid aggregates of peptides Aβ1-28, Aβ1-42 and Aβ1-43 in the presence of guanidine hydrochloride were compared. Measurements of the reduction in light scattering intensity as a function of the concentration of guanidine hydrochloride were used as an index of amyloid aggregate dissolution. Samples were incubated for 1 hour in the presence of the indicated concentrations of GdnHCl prior to measurements. Different symbols correspond to Aβ1-28 (□), Aβ1-42 (O) and Aβ1-43 (Δ), and represent averages±S.D. from 3-5 determinations.

Aβ1-28 = target: T3, Aβ1-28 (Homo sapiens, UniProt P05067); test: Disaggregation of fibrillar Aβ1-28 by GdnHCl, light scattering; format: biochemical; settings: Aβ1-28 10 μM, 1 hour incubation
T3 construct: purchased Bachem Inc; host or cells: synthetic peptide
Procedure: as §1, §2

[6] = aromatic compound concentration 200 micromolar

T2 sequence (P05067 672-713): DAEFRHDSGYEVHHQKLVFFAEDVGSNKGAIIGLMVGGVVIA
T1 sequence (P05067 672-713): as above
T3 sequence (P05067 672-699): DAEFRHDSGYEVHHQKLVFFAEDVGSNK

With O=[N+]([O-])c1ccc(O)c([N+](=O)[O-])c1 [2,4-dinitrophenol] the “reduction in the volume of amyloid deposits relative to Aβ injected alone” value (amyloid deposits) was 86±17%, the “effect of compound alone on survival of neurons in culture” value (hippocampal neurons [1]; 20 μM DNP) was “no effects” and the “fibrils seen by electron microscopy” value (Aβ1-42 [2]; Aβ1-42 22 μM incubated 2 days in PBS with 20 μM DNP) was “completely devoid of fibrils”. For the same compound, the “light scattering from Aβ suspensions (disaggregation of fibrillar amyloid)” value (Aβ1-42 [3]; DNP 20 μM) was “completely abolished light scattering”, the IC50 (Aβ1-42 [3]) was about 7 µM and the inhibition at 200 µM (Aβ1-42 [3]; [6]) was 100%. For the same compound, the “protection against Aβ neurotoxicity (neuron morphology)” value (hippocampal neurons [4]; 20 μM DNP) was “marked protection against neurotoxicity”.
In the case of Nc1cc(Cl)ccc1O [2-amino-4-chlorophenol], the inhibition at 200 µM (Aβ1-42 [3]; [6]) is reported as 12%.
For Nc1cc([N+](=O)[O-])ccc1O [2-amino-4-nitrophenol], the inhibition at 200 µM (Aβ1-42 [3]; [6]) was 92%.
Compound Nc1ccc([N+](=O)[O-])cc1O [2-amino-5-nitrophenol] has an inhibition at 200 µM (Aβ1-42 [3]; [6]) of 44%.
For Cc1ccc(O)cc1C [3,4-dimethyl-phenol], the inhibition at 200 µM (Aβ1-42 [3]; [6]) was 40%.
Nc1cccc(O)c1 [3-amino-phenol] showed an inhibition at 200 µM (Aβ1-42 [3]; [6]) of 18%.
In the case of O=[N+]([O-])c1cccc(O)c1 [3-nitrophenol], the “effect of compound alone on survival of neurons in culture” value (hippocampal neurons [1]; 100 μM NP) is reported as “no effects”, the “fibrils seen by electron microscopy” value (Aβ1-42 [2]; Aβ1-42 22 μM incubated 2 days in PBS with 100 μM NP) is reported as “completely devoid of fibrils” and the IC50 (Aβ1-42 [3]) is reported as about 80 µM. For the same compound, the inhibition at 200 µM (Aβ1-42 [3]; [6]) was 60% and the “protection against Aβ neurotoxicity (neuron morphology)” value (hippocampal neurons [4]; 100 μM NP) was “marked protection against neurotoxicity”.
COc1ccc(N)cc1 [4-amino-anisole] showed an inhibition at 200 µM (Aβ1-42 [3]; [6]) of 48%.
With O=[N+]([O-])c1ccc(Br)cc1 [4-bromo-nitrobenzene] the “% decrease in light scattering” value (Aβ1-42 [3]; [6]) was 37%.
Compound Oc1ccc(Br)cc1 [4-bromo-phenol] has an inhibition at 200 µM (Aβ1-42 [3]; [6]) of 25%.
Work on Oc1ccc(Cl)cc1 [4-chloro-phenol] yielded an inhibition at 200 µM (Aβ1-42 [3]; [6]) of 20%.
For CCc1ccc(O)cc1 [4-ethyl-phenol], the inhibition at 200 µM (Aβ1-42 [3]; [6]) was 0%.
With COc1ccc([N+](=O)[O-])cc1 [4-nitro-anisole] the inhibition at 200 µM (Aβ1-42 [3]; [6]) was 49%.
For N=C(N)N [GdnHCl, guanidine hydrochloride], the “GdnHCl concentration for full disaggregation” value (Aβ1-42 [5]) was 5 to 6 M and the “GdnHCl concentration for complete disaggregation” value (Aβ1-28) was 3 M.
